Measurements reported in ChEMBL document CHEMBL3044798, “Nitrogen concentration and application timing affect imazamox efficacy in winter wheat” (Crop Prot, 2009).
Activity calls are given as the source filed them.

How the values were obtained:
Format in all cases: functional, organism-based
Secale cereale [1] = test: Herbicidal activity against feral Secale cereale (rye) treated as spring post-emergence application at winter wheat-growing season in presence of urea ammonium nitrate
Secale cereale [2] = test: Herbicidal activity against feral Secale cereale (rye) treated as fall post-emergence application at winter wheat-growing season in presence of urea ammonium nitrate
Aegilops cylindrica [3] = test: Herbicidal activity against Aegilops cylindrica treated as spring post-emergence application at winter wheat-growing season relative to urea ammonium nitrate
Aegilops cylindrica [4] = test: Herbicidal activity against Aegilops cylindrica treated as fall post-emergence application at winter wheat-growing season relative to urea ammonium nitrate

Measured: Activity

COCc1cnc(C2=NC(C)(C(C)C)C(=O)N2)c(C(=O)O)c1 (centres undefined)
active: all assays above
